In patent US11767305B2, “Advantageous benzofuran compositions for mental disorders or enhancement” (Tactogen Inc, priority 2020, dated 2023):

Legend:
DAT = DAT (Homo sapiens (Human), UniProt Q01959); conditions: read-out: IC50 inhibiting reuptake at DAT; cited from earlier work
SERT = SERT (Homo sapiens (Human), UniProt P31645); conditions: read-out: IC50 inhibiting reuptake at SERT; cited from earlier work
neuritogenesis = conditions: cited from earlier work
[1] = biological target: T1, serotonin (5-HT) transporter (SERT) (Rattus norvegicus (Rat), UniProt P31652); assay: Rat synaptosome SERT [3H]5-HT release assay; conditions: [3H]5-HT release via SERT EC50 (nM), 5 nM [3H]5-HT
5-HT1B = 5-HT1B (Homo sapiens (Human), UniProt P28222); conditions: cited from earlier work
[2] = biological target: T1, serotonin (5-HT) transporter (SERT); assay: Rat synaptosome SERT [3H]5-HT uptake inhibition assay; conditions: Inhibition of [3H]5-HT Uptake at SERT IC50 (nM), 5 nM [3H]5-HT

Chain of 5-HT1B (P28222 whole entry, looked up, species assumed): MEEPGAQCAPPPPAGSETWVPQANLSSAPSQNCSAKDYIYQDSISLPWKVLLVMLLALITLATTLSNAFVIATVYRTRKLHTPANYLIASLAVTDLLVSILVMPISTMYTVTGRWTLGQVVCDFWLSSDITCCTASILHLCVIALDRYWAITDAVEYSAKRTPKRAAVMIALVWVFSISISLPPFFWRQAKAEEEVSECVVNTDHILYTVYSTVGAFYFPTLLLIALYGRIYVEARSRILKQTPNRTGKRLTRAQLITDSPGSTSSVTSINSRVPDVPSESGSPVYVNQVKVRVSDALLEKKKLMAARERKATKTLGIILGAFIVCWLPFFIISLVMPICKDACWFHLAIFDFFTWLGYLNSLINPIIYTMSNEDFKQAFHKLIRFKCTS

Compound | IC50 (DAT) [nM] | IC50 (SERT) [nM] | EC50 (neuritogenesis; read-out: EC50 for promoting neuritogenesis) [nM] | Emax for promoting neuritogenesis (neuritogenesis; relative to ketamine) | EC50 [1] [nM] | binding to 5-HT1B (5-HT1B) | IC50 [2] [nM]
CNC(C)Cc1ccc2occc2c1 (racemic) [racemic 5-MAPB, 1-(benzofuran-5-yl)-N-methylpropan-2-amine] | 3100 | 8500 | – | – | – | – | –
CNC(C)Cc1ccc2c(c1)OCO2 (stereo not shown) [MDMA] | – | – | 7.41 | approximately twice that of ketamine | 94.3 ± 13.6 | does not bind directly | 384 ± 32.8
